The values that follow come from US20110028715A1, “NOVEL ADENINE COMPOUND” (priority 2007, published 2011).

One assay deals with IFN-α. As to the kind of experiment: IFN-α production inducing activity in mice (plasma IFN-α by L929/2-5AS-Luc bioassay). To be noted: 3 hours after 1 mg/kg intravenously via tail vein, mean ± standard deviation (n = 3). The format is in vivo, B6C3F1 mice. Here is the method: A test compound was administered to B6C3F1 mice (Charles River Japan, Inc.) via tail vein at the dose of 1 mg/kg intravenously. After 3 hours, total blood was collected into a sample tube containing heparin. Plasma was prepared from total blood after centrifugation (3,000 rpm, 10 min, at room temperature) and stored at −20° C.
Murine fibroblasts (L929/2-5AS-Luc), which constitutively expressed luciferase gene in which the promoter region for 2′-5′-oligoadenylate synthase was cloned, was seeded into 96-well plate at 4×10^4 cells/well, and cultured for overnight with diluted plasma or mouse IFN-α. After Luclite (Perkin Elmer) was added to the plate, the luciferase activity was measured with TopCount (Perkin Elmer).
The concentration of IFN-α in plasma was calculated by linear regression of logarithmic transformed concentration of mouse IFN-α and the luciferase activity.

The test system of a further assay is OV-HM ovarian carcinoma. Briefly: Antitumor activity: lung metastasis in OV-HM ovarian carcinoma-bearing mouse. The format is in vivo, B6C3F1 mouse. Particulars: Day 35. Here is the method:
OV-HM ovarian carcinoma-bearing B6C3F1 mouse was prepared by intradermally inoculating 1×10^6 viable OV-HM cells in back skin. Tumor was surgically removed ten days after the tumor incubation under isoflurane anesthesia. On Day 11, Day 14, Day 17, Day 20, Day 24, Day 28, and Day 32, a test compound was administered via tail vein at the dose of 1 mg/kg. On Day 35, mouse was euthanized, and lung was collected from the mouse. Metastasized tumor nodules in lung was counted, and the frequency of the metastasized mice was calculated in each group.

The structures appear in SMILES notation.

As to `CCOc1nc(N)c2[nH]c(=O)n(Cc3ccc(CN(C)C)cc3)c2n1` [Example 63, 6-Amino-9-(4-dimethylaminomethylbenzyl)-2-ethoxy-7,9-dihydropurin-8-one], the “Mouse IFN-α” value in the assay on IFN-α worked out at 25.4 ± 13.9 IU/mL. In the assay on OV-HM ovarian carcinoma (metastasized mice per group, lung, 1 mg/kg via tail vein on Days 11, 14, 17, 20, 24, 28, 32), the Frequency of metastasis is 0/6. Also, in the assay on OV-HM ovarian carcinoma (metastasized tumor nodules in lung, 1 mg/kg via tail vein, **p < 0.01 vs vehicle group (Wilcoxon)), the Number of tumor is given as 0.0**.
